Data published in patent US10548856B2, “Compounds and methods for modulating serotonin receptors in the periphery” (Northeastern University, priority 2015, dated 2020).
Where two headings read alike, the source gives them in different places.

How the values were obtained:
Human 5-HT7 = target: T1, Human 5-HT7 (Homo sapiens, UniProt P34969); assay: In vitro binding affinity to serotonin 5-HT7 receptors using HEK293 cells
T1 construct: expressed in transfected cells; host or cells: HEK293
Description: 2015, 6, 1259-1270. The compounds are tertiary amines and available to bind 5-HT7 receptors both in the brain and in the periphery. Each of the compounds can be derivatized to a corresponding positively-charged quaternary amine, for example, by the addition of a third alkyl group, R3, to render it impermeable to the blood-brain barrier and specific for peripheral 5-HT7 receptors.

[1] = Plasma and brain concentrations after subcutaneous administration (LC-MS/MS); type: in vivo, C57Bl/6J mice; settings: for concentration at 30 min / concentration at 60 min / concentration at 90 min: male, C57Bl/6J, mouse, 3.0 mg/kg subcutaneous, mice, mean (SEM); for concentration at 30 min: 30 min after injection; for concentration at 60 min: 60 min after injection; for concentration at 90 min: 90 min after injection
Description: At 30, 60, or 90 min later, mice were euthanized by rapid cervical dislocation and decapitation. Trunk blood was collected in pre-chilled, heparin-coated tubes. Brains were quickly excised and frozen in liquid nitrogen. Plasma was collected from blood after centrifugation for 5 min at 13,000 g. Whole brain samples were wrapped in foil, and brain and plasma samples were labeled and stored at −80° C. until liquid chromatography-mass spectrometry/mass spectrometry (LC-MS/MS) assays were performed. Frozen brain samples were weighed and homogenized in phosphate buffered saline (PBS), pH 7.4. After the first analysis, the extra brain homogenate was stored at −80° C. until they were thawed for a second, more dilute, analysis. Plasma samples were used directly upon arrival. The proteins from each plasma sample and a portion of each brain homogenate were immediately precipitated with 1:1 methanol:acetonitrile (4× starting volume) and internal standard ((−)-MBP^68) followed by centrifugation at 14,000 g for 5 minutes at 4° C. The resulting supernatants from each sample were dried under nitrogen. Each sample was reconstituted in methanol, vortexed, sonicated briefly, and centrifuged prior to LC-MS/MS analysis. Calibration curves were constructed from the ratios of the peak areas of 5-FPT versus (−)-MBP in extracted standards made in mouse plasma or homogenized mouse brain.
LC-MS/MS analysis was performed using an Agilent 1100 series HPLC and a Thermo Finnigan Quantum Ultra triple quad mass spectrometer. The mobile phases used were 0.1% formic acid in water (A) and 0.1% formic acid in methanol (B) in a 5 minute gradient. Samples of 10 μL each were injected onto a Phenomenex Gemini C18 column (2×50 mm, 5μ) with a C18 guard column. 5-FPT and its internal standard ((−)-MBP) were ionized in ESI+ and detected in SRM mode. Internal standards were used for quantification of the compound level per g tissue or per μL plasma. Four mice were included per group, but plasma levels from one mouse were not detectable due to low volume of blood collected.

DOI HTR = assay: Attenuation of the DOI HTR; type: in vivo; settings: 5.6 mg/kg
[2] = brain, read-out: Brain concentration
[3] = plasma, read-out: Plasma concentration

T1 sequence (P34969 1-445 isoform P34969-2): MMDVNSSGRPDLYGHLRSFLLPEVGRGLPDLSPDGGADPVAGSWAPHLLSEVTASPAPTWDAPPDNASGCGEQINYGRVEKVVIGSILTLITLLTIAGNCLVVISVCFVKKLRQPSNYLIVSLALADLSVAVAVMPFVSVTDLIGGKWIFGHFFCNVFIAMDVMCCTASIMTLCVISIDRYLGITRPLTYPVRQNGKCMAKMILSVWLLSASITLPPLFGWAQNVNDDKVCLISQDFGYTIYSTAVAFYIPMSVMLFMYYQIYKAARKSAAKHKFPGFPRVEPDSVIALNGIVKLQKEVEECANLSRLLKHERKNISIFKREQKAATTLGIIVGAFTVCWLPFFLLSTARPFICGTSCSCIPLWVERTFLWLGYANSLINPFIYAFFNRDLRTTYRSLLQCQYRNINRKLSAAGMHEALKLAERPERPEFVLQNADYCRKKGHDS

| Structure (SMILES) | Ki (Human 5-HT7) [nM] | further results |
| --- | --- | --- |
| COc1cc(-c2ccccc2)c2c(c1OC)CC(N(C)C)CC2 (racemic) [(R/S)-Methyl / 7,8-diOMe-5-Phenyl] | > 10000 | – |
| CN(C)C1CCc2c(cccc2C2CCCC2)C1 (racemic) [(R/S)-Methyl / Cyclopentyl] | 240 ± 35 | – |
| CN(C)C1CCc2c(cccc2OCc2ccccc2)C1 (racemic) [(R/S)-Methyl / O-Benzyl] | > 10000 | – |
| CN(C)C1CCc2c(cccc2-c2ccc(F)cc2Cl)C1 (racemic) [(R/S)-Methyl / Phenyl-2′-Cl-4′-F] | 30 ± 10 | – |
| CN(C)C1CCc2c(cccc2-c2cc(Cl)cc(Cl)c2)C1 (racemic) [(R/S)-Methyl / Phenyl-3′,5′-Cl] | 40 ± 60 | – |
| CN(C)C1CCc2c(cccc2-c2cc(F)cc(F)c2)C1 (racemic) [(R/S)-Methyl / Phenyl-3′,5′-F] | 180 ± 32 | – |
| CN(C)C1CCc2c(cccc2-c2cccc(C(F)(F)F)c2)C1 (racemic) [(R/S)-Methyl / Phenyl-3′-CF3] | 63 ± 6.6 | – |
| CN(C)C1CCc2c(cccc2-c2cccc(Cl)c2)C1 (racemic) [(R/S)-Methyl / Phenyl-3′-Cl] | 18 ± 2.4 | – |
| CN(C)C1CCc2c(cccc2-c2cccc(F)c2)C1 (racemic) [(R/S)-Methyl / Phenyl-3′-F] | 34 ± 6.2 | – |
| COc1cccc(-c2cccc3c2CCC(N(C)C)C3)c1 (racemic) [(R/S)-Methyl / Phenyl-3′-OMe] | 37 ± 9 | – |
| CN(C)C1CCc2c(cccc2-c2ccc(F)cc2)C1 (racemic) [(R/S)-Methyl / Phenyl-4′-F] | 120 ± 17 | – |
| CN(C)C1CCc2c(cccc2-c2ccccc2F)C1 (single isomer, unassigned; (+)) [(+)-5-FPT, 5-(2′-fluorophenyl)-N,N-dimethyl-1,2,3,4-tetrahydronaphthalen-2-amine] | – | Blood-brain barrier crossing ([1]; 30, 60 and 90 min after systemic administration): readily crosses the blood-brain barrier; Clearance in the periphery (plasma relative to brain levels) ([1]; as soon as 30 min post-administration): rapidly cleared in the periphery; concentration at 30 min [1, 2]: 1780 ng/g; concentration at 60 min [1, 2]: 2160 ng/g; concentration at 90 min [1, 2]: 1460 ng/g; concentration at 30 min [1, 3]: 114 ng/mL; concentration at 60 min [1, 3]: 118 ng/mL; concentration at 90 min [1, 3]: 70 ng/mL; Time for which attenuating effect on the DOI HTR remained significant (DOI HTR): up to 2 hrs; Block of the DOI HTR (DOI HTR; 3 hrs. post-administration): did not block the DOI HTR |
| CN(C)[C@@H]1CCc2c(cccc2-c2ccccc2Cl)C1 [(R)-Methyl / Phenyl-2′-Cl] | 58 ± 12 | – |
| CN(C)[C@@H]1CCc2c(cccc2-c2ccccc2F)C1 [(R)-Methyl / Phenyl-2′-F] | 260 ± 53 | – |
| CN(C)[C@@H]1CCc2c(cccc2-c2ccccc2)C1 [(R)-Methyl / Phenyl] | 4400 ± 930 | – |
| CCCN(CCC)[C@@H]1CCc2c(cccc2-c2ccccc2F)C1 [(R)-Propyl / 2′-F-Phenyl] | 63 ± 2.7 | – |
| CCCN(CCC)[C@@H]1CCc2c(cccc2-c2ccccc2)C1 [(R)-Propyl / Phenyl] | 180 ± 31 | – |
| CN(C)[C@H]1CCc2c(cccc2-c2ccc(Cl)cc2)C1 [(S)-Methyl / Pheny-4′-Cl] | 72 ± 5.8 | – |
| CN(C)[C@H]1CCc2c(cccc2-c2ccccc2Cl)C1 [(S)-Methyl / Phenyl-2′-Cl] | 6 ± 0.6 | – |
| CN(C)[C@H]1CCc2c(cccc2-c2ccccc2F)C1 [(S)-Methyl / Phenyl-2′-F] | 6 ± 0.7 | – |
| CN(C)[C@H]1CCc2c(cccc2-c2cc(C(F)(F)F)cc(C(F)(F)F)c2)C1 [(S)-Methyl / Phenyl-3′,5′-CF3] | 910 ± 260 | – |
| CN(C)[C@H]1CCc2c(cccc2-c2ccccc2)C1 [(S)-Methyl / Phenyl] | 9 ± 0.4 | – |
| CCCN(CCC)[C@H]1CCc2c(cccc2-c2ccccc2F)C1 [(S)-Propyl / 2′-F-Phenyl] | 35 ± 5.2 | – |
| CCCN(CCC)[C@H]1CCc2c(cccc2-c2ccccc2)C1 [(S)-Propyl / Phenyl] | 83 ± 5.8 | – |
